For 6 compounds, melting point and IC50 results are on record in patent publication US7605176B2 (Boehringer Ingelheim International GmbH, priority 2004, dated 2009).

One may read the melting point as the temperature, or range, at which the solid turns liquid. As a reminder, the IC50 is the midpoint of a concentration-inhibition curve.

In one data set the target is T1, hMCH-1R (Homo sapiens, UniProt Q99705).
T1 construct: expressed in transfected cells
Put plainly: MCH-1 receptor binding test (125I-MCH binding to membranes of hMCH-1R transfected CHO/Galpha16 cells). Particulars: competition with 100 pM 125I-MCH, membranes of CHO/Galpha16 cells stably transfected with hMCH-1R. Here is the method: Membranes from CHO/Galpha16 cells stably transfected with human hMCH-1R are resuspended using a syringe (needle 0.6×25 mm) and diluted in test buffer (50 mM HEPES, 10 mM MgCl2, 2 mM EGTA, pH 7.00; 0.1% bovine serum albumin (protease-free), 0.021% bacitracin, 1 μg/mL aprotinin, 1 μg/mL leupeptin, and 1 μM phosphoramidone) to a concentration of 5 to 15 μg/mL.
After the incubation the reaction is filtered using a cell harvester through 0.5% PEI treated fiberglass filters (GF/B, Unifilter Packard). The membrane-bound radioactivity retained on the filter is then determined after the addition of scintillator substance (Packard Microscint 20) in a measuring device (TopCount of Packard).
The analysis of the concentration binding curve is carried out on the assumption of one receptor binding site.

T1 sequence (Q99705 whole entry): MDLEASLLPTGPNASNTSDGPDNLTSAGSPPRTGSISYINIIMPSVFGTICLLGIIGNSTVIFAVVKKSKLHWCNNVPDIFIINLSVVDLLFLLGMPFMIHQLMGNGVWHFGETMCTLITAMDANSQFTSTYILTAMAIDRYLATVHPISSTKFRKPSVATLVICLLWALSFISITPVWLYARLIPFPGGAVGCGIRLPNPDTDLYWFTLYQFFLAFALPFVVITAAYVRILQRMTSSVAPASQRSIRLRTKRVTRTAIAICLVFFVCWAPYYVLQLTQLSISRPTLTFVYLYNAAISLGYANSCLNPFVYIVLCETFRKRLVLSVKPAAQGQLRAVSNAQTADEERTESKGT

In turn, `CCN(CC)CCOc1ccc(NC(=O)CC(=O)c2ccc(-c3ccccc3)cc2)cc1Cl` [Example 7, 3-biphenyl-4-yl-N-[3-chloro-4-(2-diethylaminoethoxy)phenyl]-3-oxopropionamide] showed a melting point of 148 to 151 °C.
`CCN(CC)CCOc1ccc(NC(=O)CC(=O)c2ccc(C(F)(F)F)cc2Cl)cc1Cl` [Example 7.1] had an IC50 at hMCH-1R of 34.8 nM.
Turning to `CC1CCN(CCOc2ccc(NC(=O)CC(=O)c3ccc(-c4ccccc4)cc3)cc2Cl)CC1` [Example 1, 3-biphenyl-4-yl-N-{3-chloro-4-[2-(4-methylpiperidin-1-yl)ethoxy]phenyl}-3-oxopropionamide], the melting point was in the range of 135 to 139 °C.
Still for that read-out and setting: the result for `O=C(CC(=O)c1ccc(-c2ccccc2)cc1)Nc1ccc(OCCN2CCCC2)c(C(=O)O)c1` [Example 8, 5-(3-biphenyl-4-yl-3-oxopropionylamino)-2-(2-pyrrolidin-1-ylethoxy)benzoic acid] reads 236 to 240 °C.
Take `O=C(CC(=O)c1ccc(-c2ccccc2)cc1)NCCc1ccc(CN2CCCC2)cc1` [Example 5.1]: the melting point lay in the range of 121 to 125 °C. For the same compound, at hMCH-1R, the IC50 came to 63.7 nM.
With `COC(=O)c1cc(NC(=O)CC(=O)c2ccc(-c3ccccc3)cc2)ccc1OCCN1CCCC1` [Example 1.9, methyl 5-(3-biphenyl-4-yl-3-oxopropionylamino)-2-(2-pyrrolidin-1-ylethoxy)benzoate], the melting point is 131 to 135 °C.
